According to patent US6268381A, “Taxane derivatives” (Kabushiki Kaisha Yakult Honsha, priority 1997, dated 2001):
≈ marks a conversion by molar mass, not a printed value.

Columns and labels:
KB cells = test: Growth inhibitory activity against KB cells (Test 2, XTT assay); type: cell-based, human; settings: for GI50: Homo sapiens, 72 h, 3 days culture; for Activity ratio: relative to Taxol (1.00)
Description: Growth Inhibitory Activity of Taxane Derivatives (1)
As KB cells derived from a human mouth cancer, those purchased from Dainippon Pharmaceutical Co., Ltd. and stored in a lyophilized from at the Research Institute of that company was used. In Dulbecco's modified Eargle's medium containing 10% fetal bovine serum (product of NISSUI PHARMACEUTICAL CO., LTD.), the KB cells were cultured and maintained under the conditions of 5%, CO2 -ari and 37° C.
Each compound was used by dissolving it in DMSO at a concentration of 10 mg/mL.
On Day-1, cells which were in a logarithmic growth phase were inoculated at 2,000 cells/100 μl/well on 96-well microtiter plates (Falcon #3072) by using a phenol-red-free culture medium with 10% fetal bovine serum contained therein (Dulbecco's modified Eargle's medium (Sigma)), and were cultured overnight. On Day 0, the compounds each of which had been diluted to 0.03 to 10,000 ng/mL with the same culture medium were added in 100 μl aliquots to the individual wells, and the cells were cultured for 3 days. Three wells were used per each drug concentration. Each plate was provided with three blank wells containing only the culture medium and also with eight wells as a drug-untreated control.
Upon use, XTT (Sigma) was dissolved at a concentration of 1 mg/mL in each culture medium which was free of serum. Phenodin methosulfate (Sigma) dissolved at a concentration of 5 mM in PBS was added to the resulting solution at a volume ratio of 1/200. To each well, the solution so prepared was added in an amount of 50 μl per well. Subsequent to culture for 4 hours, OD was measured at 450 nm by ELISA.
Calculation of 50% Growth Inhibitory Concentration (GI50)
GI50 was calculated by interpolation from a concentration-growth inhibition rate (GIR) curve. GIR was determined in accordance with the following formula: [formula]

[1] = Solubility test of water-soluble taxane derivatives (Test 1, HPLC); type: physicochemical; settings: purified water + 1.05 eq. 0.1N hydrochloric acid, shaken 2 hours at room temperature
Description: Solubilities of Novel Water-soluble Taxane Derivatives
I) Preparation of a calibration curve
Compound (1-4) was weighed in an amount of 2.3 mg, to which 2.3 mL of acetonitrile was added so that the compound was dissolved to provide a standard solution. Using a 10 μL portion of the standard solution, the test was conducted by HPLC (operation conditions 1). The peak area of Compound (1-4), which had been obtained from the chromatogram of the standard solution, was measured by automated integration. The peak area obtained as an average of three measurements was plotted against the amount (10 μg) of Compound (1-4) per 10 μL, whereby a calibration curve was prepared.
Calibration curve of Compound (1-4): Y =1.518 ×10^-5 X [X: peak area, Y: amount (μg) of Compound (1-4)] [HPLC operation conditions 1] Column: Inertsil ODS-2 (5-250), 40 deg. Mobile phase: 0.01M KH2 PO4 --CH3 CN (3:2). Flow rate: 1.0 mL/min. Detection: Ultraviolet absorption photometer (225 nm), 0.2 AUFS.
II) Solubility test of Compound (1-4):
Compound (1-4) was weighed in an amount of 3.7 mg and then suspended in 2.0 mL of purified water. To the resulting suspension, 41.3 μL (1.05 eq.) of 0.1N hydrochloric acid was added. […] From the area obtained as an average of three measurements, the solubility of the compound (1-4) was determined. […]

breast cancer = settings: Ann. int. Med. 111, 273, 1989; cited from earlier work
ovarian cancer = settings: Ann. int. Med. 111, 273, 1989; cited from earlier work

SMILES: CC(=O)O[C@@]12CO[C@@H]1C[C@H](O)[C@@]1(C)C(=O)[C@H](OC(=O)N3CCC(N4CCCCC4)CC3)C3=C(C)[C@@H](OC(=O)[C@H](O)[C@@H](NC(=O)OC(C)(C)C)c4ccoc4)C[C@@](O)([C@@H](OC(=O)c4ccccc4)[C@H]21)C3(C)C [Compound 1-1, 13-0-[3-(tert-Butoxycarbonylamino)-3-(3-furyl)-2-hydroxypropionyl]-10-0-(4-piperidinopiperidinocarbonyl)-10-deacetylbaccatin III]
- GI50 (KB cells): 0.48 ng/mL (≈ 0.484 nM)
- Activity ratio (KB cells): 2.70

SMILES: CC(=O)O[C@@]12CO[C@@H]1C[C@H](O)[C@@]1(C)C(=O)[C@H](OC(=O)N3CCN(C)CC3)C3=C(C)[C@@H](OC(=O)[C@H](O)[C@@H](NC(=O)OC(C)(C)C)c4ccoc4)C[C@@](O)([C@@H](OC(=O)c4ccccc4)[C@H]21)C3(C)C [Compound 1-2]
- GI50 (KB cells): 0.28 ng/mL (≈ 0.303 nM)
- Activity ratio (KB cells): 4.64

SMILES: CCCN(CCC)C1CCN(C(=O)O[C@H]2C(=O)[C@@]3(C)[C@H]([C@H](OC(=O)c4ccccc4)[C@]4(O)C[C@H](OC(=O)[C@H](O)[C@@H](NC(=O)OC(C)(C)C)c5ccco5)C(C)=C2C4(C)C)[C@]2(OC(C)=O)CO[C@@H]2C[C@@H]3O)CC1 [Compound 1-3, 13-0-[3-(tert-Butoxycarbonylamino)-3-(2-furyl)-2-hydroxypropionyl]-10-0-(4-dipropylaminopiperidinocarbonyl)-10-deacetylbaccatin III]
- GI50 (KB cells): 0.43 ng/mL (≈ 0.427 nM)
- Activity ratio (KB cells): 3.02

SMILES: CCN1CCN(C(=O)O[C@H]2C(=O)[C@@]3(C)[C@H]([C@H](OC(=O)c4ccccc4)[C@]4(O)C[C@H](OC(=O)[C@H](O)[C@@H](NC(=O)OC(C)(C)C)c5ccco5)C(C)=C2C4(C)C)[C@]2(OC(C)=O)CO[C@@H]2C[C@@H]3O)CC1 [Compound 1-4, 13-0-[3-(tert-Butoxycarbonylamino)-3-(2-furyl)-2-hydroxypropionyl]-10-0-(4-ethylpipezinocarbonyl)-10-deacetylbaccatin III]
- GI50 (KB cells): 0.23 ng/mL (≈ 0.245 nM)
- Activity ratio (KB cells): 5.65
- Amount dissolved ([1]; average of three measurements): 7.87 μg/5 μL
- solubility at 2 h ([1]; water + 0.1n hcl): 1570 µg/mL

SMILES: CC(=O)O[C@H]1C(=O)[C@@]2(C)[C@H]([C@H](OC(=O)c3ccccc3)[C@]3(O)C[C@H](OC(=O)[C@H](O)[C@@H](NC(=O)c4ccccc4)c4ccccc4)C(C)=C1C3(C)C)[C@]1(OC(C)=O)CO[C@@H]1C[C@@H]2O [Taxol]
- GI50 (KB cells): 1.3 ng/mL (≈ 1.52 nM)
- Efficacy against breast cancer (breast cancer): high efficacy
- Efficacy against ovarian cancer (ovarian cancer): high efficacy
